These results are taken from article PMC11212260, “Next-generation neuropeptide Y receptor small-molecule agonists inhibit mosquito-biting behavior” (Parasites & Vectors, 2024).

Molecules are shown by their SMILES. Several values for one entry are separate records, joined by “and”; a condition that tells them apart may be missing. Equal entries are not always repeated. Where two headings read alike, the source gives them in different places.

The subject of test [1] is Aedes aegypti (Orlando strain) females. Put plainly: Host-seeking screening assay (miniport olfactometer). Type of test: in vivo. The settings on record: fed 1 μM in saline, tested 48 h post-meal; for Attraction (relative to saline): per-compound value of Fig. 3C; for Host-seeking relative to saline (test compound % host-seeking/average matched saline % host-seeking): individual replicates. The protocol: Groups of 60–150 females were placed in bucket cages with a diameter of 21.6 cm and height of 16.5 cm (VWR) and fasted with access to water for 24 h prior to feeding. Meals were delivered to females via Glytube membrane feeders as described previously. Meals consisted of 1.5 ml sheep blood (HemoStat Laboratories), saline (400 mM NaHCO3 + dih2O), or saline and test compound. Lyophilized compounds were stored at room temperature until use. High-concentration stocks (30 mM in 100% dimethyl sulfoxide [DMSO]) (Sigma-Aldrich) were stored at −20 °C and diluted in saline immediately prior to feeding. Once prepared, meals and glycerol heating elements were warmed in a 42 °C water bath for 15 min to provide warmth to attract mosquitos to feed. ATP (1 mM final concentration) and test compounds (1 μM final concentration) were added prior to placing the meal on top of the mesh on the cage containing female mosquitos. Females were allowed 15–20 min to feed to repletion. Abdominal engorgement was scored by eye and confirmed by weighing females to ensure full feeding (Data S1). […] Females were returned to their original cage with a diH2O wick for 48 h prior to behavioral testing. The lethality of each compound was measured by counting the number of dead females in each cage 24 h post-meal.
Miniport olfactometers were fabricated in-house as described previously. Information regarding design, construction, and use can be found at https://github.com/VosshallLab/Miniport-Construction. Miniport canisters consisted of a 6″ × 3″ × 3″ acrylic tube with a mesh screen to allow for air flow. Groups of 10–20 females were loaded into canisters 24 h post-meal. Females were left in canisters overnight to acclimate with two cotton balls soaked in diH20 to prevent desiccation. Behavior trials began 48 h post-meal. Canisters were randomly assigned to attraction traps 1–4 and given 5 min to acclimate. The stimulus end of the trap was connected to a flowmeter that supplied 5% CO2 at a rate of 30 ml/min. Thirty seconds of CO2 flow was supplied to activate females prior to opening the sliding door. Once opened, the sliding door gave females access to the attraction trap baited with a human-scented nylon stocking previously worn by the same experimenter for 8–10 h to collect body odor and stored in a plastic bag at −20 °C until use. After 5 min, the sliding door was closed and attraction was scored as mosquitoes in the attraction trap/total number of mosquitoes. For each experiment data were normalized to the matched average saline attraction from the same experiment (% attracted/average saline attraction). Any dead mosquitoes were excluded from the analysis. Non-fed females and blood-fed females served as environmental control groups while the saline-fed females served as the vehicle control each day. If non-fed or saline-fed females were less than 50% attracted or if blood-fed females were more than 20% attracted behavioral trials were halted and all data from that experimental day were discarded.

The next test has as its target Ae. aegypti NPYLR7 (Aedes aegypti, UniProt U5N1H5). Put plainly: In vitro calcium (GCaMP6s) FLIPR assay in HEK293T cells transfected with NPYLR7. The test is classed as cell-based. The conditions noted are these: for RFU: assay date 1/11/20 plate 1, duplicate wells, listed as TDI-012615-NX-1; for activation at 100 µM: single replicate of the dose-response curve. The protocol:
The in vitro screening assay was adapted from, and carried out at HD Biosciences (HDB, Shanghai) as follows: HEK293T (Thermo Fisher Scientific) cells were grown in Dulbecco’s modified Eagle medium (DMEM) (high glucose, with glutamine), 10% fetal bovine serum, 1% penicillin–streptomycin (Pen/Strep), seeded in a 75 cm^2 flask, and incubated at 37 °C and 5% CO2. Cells were transiently transfected with 1 μg of each plasmid expressing GCaMP6s (Addgene […]) (Chen et al., 2013), mouse Gqα15 (Addgene #40753) (Offermanns and Simon, 1995) and Ae. aegypti NPYLR7 (Addgene #52392) (Duvall et al. 2019) using Lipofectamine 2000 (Invitrogen) in 4 ml of Opti-MEM (Invitrogen). This mixture was added to a plate after 20 min and incubated for 6–8 h. Cells were then trypsinized, resuspended in phenol-free media, and plated in a 384-well plate (Greiner Bio-One) at a density of 20,000 cells per 40 μl, and incubated overnight (37 °C, 5% CO2). Cells were imaged directly in phenol-free media. Plates were loaded into a Molecular Devices fluorescence imaging plate reader (FLIPR) with an excitation wavelength of 470–495 nm and an emitted wavelength of 515–575 nm. Plates were imaged every second for 5 min. After 30 s of baseline fluorescence recording, 10 μl of the test compound in reading buffer [Hank’s Balanced Salt Solution (Gibco) + 20 mM HEPES (Sigma-Aldrich)] was added. Concentrations tested ranged from 0 to 100 μM. Data were collected in raw fluorescence units (RFU).
Each test plate included replicates of 10 μM FMRFa3 (H‐Ala‐Gly‐Gln‐Gly‐Phe‐Met‐Arg‐Phe‐NH2), an Ae. aegypti neuropeptide agonist of NPYLR7 used to calculate the hundred percent effect (HPE). The zero percent effect (ZPE) control was calculated as a response to buffer alone. The Z′ factor was calculated for each plate by Z^′=1-3σHPE+3σZPE/|μHPE-μZPE| . Plates with Z′ < 0.5 were excluded from analysis. Raw fluorescence units (RFU) were converted to percent effect relative to the average of the ZPE and HPE. Percent effect = (sample luminescence − average ZPE)/(average HPE − average ZPE)×100. […] Each replicate was plotted as percent effect versus log[concentration], and replicates with maximal responses between 20 and 250% were used for EC50 calculations. Relative EC50 was calculated using an [Agonist] versus response–variable slope four-parameter model where Y=Bottom+(X^Hillslope)∗(Top-Bottom)/(X^HillSlope+EC50^HillSlope) . For compounds with multiple replicates, the relative EC50 of each replicate was averaged.

The mark [2] stands for this setting: Figure 1E Summary, third list (n = 39), read-out: Reported Metric (Summary list).
Setting [3] is: relative EC50, percent effect relative to 10 μM FMRFa3, read-out: EC50.
The mark [4] stands for this setting: Figure 1E summary value per compound, repeated on each replicate line, read-out: Reported Metric (EC50 summarised over assay dates).
Setting [5] is: fit per assay date/plate (c2), repeated on the replicate lines of one date, read-out: EC50.
[6] abbreviates: EC50 of the individual assay date/plate (assay date), read-out: EC50.
Where [7] appears, read: Figure 1E Summary, second list (n = 48), read-out: Reported Metric (Summary list).
The mark [8] stands for this setting: HEK-293T, 100 uM, normalised response.
Setting [9] is: sheet Figure 3C, unit inferred, read-out: EC50.
Setting [10] is: summary EC50 per compound (mean over assay dates), the unit is taken from the neighbouring EC50 (uM) column, read-out: Reported Metric.
[11] abbreviates: HEK-293T, single replicate, normalised response.

Ae. aegypti NPYLR7, sequence (U5N1H5 entry or part of it): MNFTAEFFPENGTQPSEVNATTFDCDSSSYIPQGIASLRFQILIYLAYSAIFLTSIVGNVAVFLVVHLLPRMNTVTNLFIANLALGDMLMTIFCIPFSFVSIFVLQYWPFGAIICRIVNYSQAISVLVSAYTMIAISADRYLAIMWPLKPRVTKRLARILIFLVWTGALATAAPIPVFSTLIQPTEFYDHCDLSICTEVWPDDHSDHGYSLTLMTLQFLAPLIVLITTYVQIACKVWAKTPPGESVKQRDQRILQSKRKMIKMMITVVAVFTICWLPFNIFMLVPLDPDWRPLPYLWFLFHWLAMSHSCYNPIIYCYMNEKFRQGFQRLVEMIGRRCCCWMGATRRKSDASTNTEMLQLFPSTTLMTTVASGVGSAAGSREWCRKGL

For the compound `Cc1nc(NC(=N)N)nc2cc(OC(F)F)ccc12` [TDI-012615], the “Attraction (relative to saline)” value in test [1] came out at 0.94. Further, the RFU at Ae. aegypti NPYLR7 (0.00169350878084303uM) was 74 RFU and 66 RFU; on Ae. aegypti NPYLR7 (0.00508052634252909uM), 74 RFU and 63 RFU; on Ae. aegypti NPYLR7 (0.0152415790275873uM), 71 RFU and 60 RFU; on Ae. aegypti NPYLR7 (0.0457247370827618uM), 57 RFU and 73 RFU; at Ae. aegypti NPYLR7 (0.137174211248285uM), 57 RFU and 91 RFU; on Ae. aegypti NPYLR7 (0.411522633744856uM), 153 RFU and 157 RFU. Moreover, the RFU on Ae. aegypti NPYLR7 (1.23456790123457uM) was 207 RFU and 271 RFU; at Ae. aegypti NPYLR7 (3.7037037037037uM) it was 247 RFU and 267 RFU; on Ae. aegypti NPYLR7 (11.1111111111111 uM), 339 RFU and 333 RFU; at Ae. aegypti NPYLR7 (33.333333 uM), 353 RFU and 317 RFU; on Ae. aegypti NPYLR7 (100 uM), 434 RFU and 405 RFU. The EC50 on Ae. aegypti NPYLR7 (setting [2]) was 1.62 µM; at Ae. aegypti NPYLR7 (Figure 1E, EC50 of the single assay date/plate, read-out: EC50), 1.31 µM and 1.93 µM; on Ae. aegypti NPYLR7 (Figure 1E, metric reported per compound, repeated on every replicate line, read-out: Reported Metric (EC50)), 1.62 µM; at Ae. aegypti NPYLR7 (setting [3]), 1.62 µM.
On to `COc1cc2c(C)nc(NC(=N)N)nc2cc1OCc1ccccc1` [TDI-012943], for which, in test [1], the “Attraction (relative to saline)” value stood at 1.035. The EC50 on Ae. aegypti NPYLR7 (setting [2]) is 0.0545 µM; on Ae. aegypti NPYLR7 (setting [4]), 0.0545 µM; at Ae. aegypti NPYLR7 (setting [5]) it was 0.0446 µM and 0.119 µM; at Ae. aegypti NPYLR7 (setting [3]), 0.0545 µM.
For `COc1ccc(COc2ccc3c(C)nc(NC(=N)N)nc3c2)cc1` [TDI-013000], the “Attraction (relative to saline)” value in test [1] is given as 0.925. In addition, the EC50 at Ae. aegypti NPYLR7 (setting [2]) is 0.0277 µM; on Ae. aegypti NPYLR7 (setting [4]) it was 0.0277 µM; at Ae. aegypti NPYLR7 (setting [5]), 0.0817 µM and 0.0282 µM; on Ae. aegypti NPYLR7 (setting [3]), 0.0277 µM; on Ae. aegypti NPYLR7 (summary value per compound, matches the mean of the EC50 (uM) values of the assay dates, column head prints no unit, Figure 1 Panel E, read-out: Reported Metric) it was 0.0277 µM.
With `CCOc1cc2c(C)nc(NC(=N)N)nc2cc1OCc1ccccc1` [TDI-013758], the “Host-seeking relative to saline (test compound % host-seeking/average matched saline % host-seeking)” value in test [1] (listed as TDI-03758) came out at 1.17. In test [1], the “Attraction (relative to saline)” value came to 0.78. Also, the EC50 on Ae. aegypti NPYLR7 (setting [6]), on Ae. aegypti NPYLR7 (setting [7]), at Ae. aegypti NPYLR7 (setting [3]), on Ae. aegypti NPYLR7 (setting [9]) and on Ae. aegypti NPYLR7 (setting [10]) was 8.53 µM throughout. The activation at 100 µM on Ae. aegypti NPYLR7 (setting [8]) was found to be 80.6%.
`Cc1nc(NC(=N)N)nc2cc(OCC3CCCOC3)ccc12` (stereo not drawn) [TDI-014167]: the “Host-seeking relative to saline (test compound % host-seeking/average matched saline % host-seeking)” value in test [1] (listed as TDI-04167) came out at 0.97. The “Attraction (relative to saline)” value in test [1] is 0.975. Moreover, the EC50 on Ae. aegypti NPYLR7 (setting [6]), on Ae. aegypti NPYLR7 (setting [7]), on Ae. aegypti NPYLR7 (setting [3]), on Ae. aegypti NPYLR7 (setting [9]) and at Ae. aegypti NPYLR7 (setting [10]) was 7.37 µM in each case. Also, the activation at 100 µM at Ae. aegypti NPYLR7 (setting [8]) was 66.1%.
With `Cc1nc(NC(=N)N)nc2cc(OCC(F)(F)F)ccc12` [TDI-014168], the “Host-seeking relative to saline (test compound % host-seeking/average matched saline % host-seeking)” value in test [1] (listed as TDI-04168) is given as 1.07. Besides, the “Attraction (relative to saline)” value in test [1] was 1.03. Further, the EC50 at Ae. aegypti NPYLR7 (setting [6]), at Ae. aegypti NPYLR7 (setting [7]), on Ae. aegypti NPYLR7 (setting [3]), on Ae. aegypti NPYLR7 (setting [9]) and at Ae. aegypti NPYLR7 (setting [10]) was 4.26 µM throughout. For the same compound, at Ae. aegypti NPYLR7 (setting [11]), the activation at 33.3333 µM amounted to 80.4%. In addition, the activation at 100 µM on Ae. aegypti NPYLR7 (setting [8]) amounted to 74.2%.
On to `Cc1nc(NC(=N)N)nc2cc(OCC3CCCCC3)ccc12` [TDI-014169], for which the “Attraction (relative to saline)” value in test [1] was 1.025. Besides, the EC50 on Ae. aegypti NPYLR7 (setting [6]) was 4.43 µM; at Ae. aegypti NPYLR7 (setting [7]), 4.43 µM; at Ae. aegypti NPYLR7 (setting [3]) it was 4.44 µM; at Ae. aegypti NPYLR7 (setting [9]) it was 4.43 µM; at Ae. aegypti NPYLR7 (setting [10]) it was 4.43 µM. Further, the activation at 3.7037 µM on Ae. aegypti NPYLR7 (setting [11]) came to 42.2%. For the same compound, at Ae. aegypti NPYLR7 (setting [11]), the activation at 11.1111 µM amounted to 78.4%. For the same compound, the activation at 33.3333 µM on Ae. aegypti NPYLR7 (setting [11]) came to 94.5%. The activation at 100 µM at Ae. aegypti NPYLR7 (setting [8]) was found to be 113%.
Regarding `Cc1nc(NC(=N)N)nc2cc(OCC3CC3)ccc12` [TDI-014171], the “Attraction (relative to saline)” value in test [1] was determined as 0.79. Moreover, the EC50 on Ae. aegypti NPYLR7 (setting [6]), at Ae. aegypti NPYLR7 (setting [2]), at Ae. aegypti NPYLR7 (setting [3]), on Ae. aegypti NPYLR7 (setting [9]) and at Ae. aegypti NPYLR7 (setting [10]) was 0.912 µM throughout. For the same compound, the activation at 1.2346 µM on Ae. aegypti NPYLR7 (HEK-293T, 1.2346 uM, single replicate, normalised response) worked out at 32.9%. On Ae. aegypti NPYLR7 (setting [11]), the activation at 3.7037 µM came out at 50.2%. Moreover, at Ae. aegypti NPYLR7 (setting [11]), the activation at 11.1111 µM worked out at 63.8%. The activation at 100 µM on Ae. aegypti NPYLR7 (setting [8]) was determined as 66.3%.
